In brackets after ≈: the same amount, converted by molar mass. Where two headings read alike, the source gives them in different places.
Test: Solubility in clomazone or propylene glycol by visual verification (turbidity)
Type: physicochemical
Conditions: organic solvent or mixture, thermodynamic from solid
Protocol: All solubilities mentioned in the present document were measured through visual verification. In a known quantity of clomazone or propylene glycol at a desired temperature, the solute (e.g. hexazinone or diuron) was added at a rate of 0.2g/5min.

CN(C)C(=O)Nc1ccc(Cl)c(Cl)c1 [Diuron] showed a solubility (23 °C, 23 °C, read-out: Solubility of Diuron in Clomazone) of 28 mg/mL (≈ 120 mM), a solubility (40 °C, 40 °C, read-out: Solubility of Diuron in Clomazone) of 36 mg/mL (≈ 154 mM) and a solubility (54 °C, 54 °C, read-out: Solubility of Diuron in Clomazone) of 61 mg/mL (≈ 262 mM).

With CN(C)c1nc(=O)n(C2CCCCC2)c(=O)n1C [Hexazinone] the solubility (23 °C, Solubility of Hexazinone in Clomazone) was 53 mg/mL (≈ 210 mM), the solubility (23 °C, Solubility of Hexazinone in Propileneglycol) was 510 mg/mL (≈ 2020 mM) and the solubility (40 °C, Solubility of Hexazinone in Clomazone) was 62 mg/mL (≈ 246 mM). It also gave a solubility (40 °C, Solubility of Hexazinone in Propileneglycol) of 580 mg/mL (≈ 2300 mM), a solubility (54 °C, Solubility of Hexazinone in Clomazone) of 73 mg/mL (≈ 289 mM) and a solubility (54 °C, Solubility of Hexazinone in Propileneglycol) of 630 mg/mL (≈ 2500 mM).

Source: EP4620304A1, “FORMULATION COMPRISING CLOMAZONE AND DIURON” (Adama Agan Ltd., priority 2024, dated 2025)
